From patent publication US10206902B2, “Mono- or di-substituted indoles as dengue viral replication inhibitors” (priority 2014, dated 2019)

Legend:
DENV-1 strain TC974#666 = experiment: Tetravalent RT-qPCR assay Protocol A, serotype 1; format: cell-based; conditions: Dengue virus, DENV1, 72 h, RT-qPCR serotype 1 TC974#666, Vero cells, day 3
Experimental: The antiviral activity of the compounds of the invention was tested against DENV-1 strain TC974#666 (NCPV), DENV-2 strain 16681, DENV-3 strain H87 (NCPV) and DENV-4 strains H241 (NCPV) and EDEN (SG/06K2270DK1/2005; GenBank accession number QG398256) in a RT-qPCR assay. Therefore, Vero cells were infected with either DENV-1, or -2, or -3, or -4 in the presence or absence of test compounds. At day 3 post-infection, the cells were lysed and cell lysates were used to prepare cDNA of both a viral target (the 3′UTR of DENV; table 2) and a cellular reference gene (β-actin, table 2). Subsequently, a duplex real time PCR was performed on a Lightcycler480 instrument. The generated Cp value is inversely proportional to the amount of RNA expression of these targets. Inhibition of DENV replication by a test compound result in a shift of Cp's for the 3′UTR gene. On the other hand, if a test compound is toxic to the cells, a similar effect on β-actin expression will be observed. The comparative ΔΔCp method is used to calculate EC50, which is based on the relative gene expression of the target gene (3′UTR) normalized with the cellular housekeeping gene (β-actin). In addition, CC50 values were determined based on the Cp values acquired for the housekeeping gene β-actin.
The culture medium consisted of minimal essential medium supplemented with 2% of heat-inactivated fetal calf serum, 0.04% gentamycin (50 mg/mL) and 2 mM of L-glutamine. Vero cells, obtained from ECACC, were suspended in culture medium and 75 μL/well was added in 96-well plates (10000 cells/well), which already contain the antiviral compounds. Typically, these plates contain a 4-fold serial dilution of 9 dilution steps of the test compound at 200 times the final concentration in 100% DMSO (500 nL; final concentration range: 25 μM-0.00038 μM). In addition, each plate contains wells which are assigned as virus controls (containing cells and virus in the absence of compound) and cell controls (containing cells in the absence of virus and compound). Once the cells were added in the plates, the plates were incubated in a fully humidified incubator (37° C., 5% CO2) until the next day. Then, DENV-1 strain TC974#666, DENV-2 strain 16681, DENV-3 strain H87 or DENV-4 strains H241 or EDEN were added. […] In parallel, 25 μL of culture medium was added to the cell controls. Next, the plates were incubated for 3 days in a fully humidified incubator (37° C., 5% CO2). After 3 days, the supernatant was removed from the wells and the cells were washed twice with ice-cold PBS (˜100 μL). The cell pellets within the 96-well plates were stored at −80° C. for at least 1 day. Next, RNA was extracted using the Cells-to-CT™ lysis kit, according to the manufacture's guideline (Applied Biosystems). The cell lysates can be stored at −80° C. or immediately used in the reverse transcription step. In preparation of the reverse transcription step, mix A (table 3A) was prepared and 7.57 μL/well was dispensed in a 96-well plate. After addition of 5 μL of the cell lysates, a five minute denaturation step at 75° C. was performed (table 3B). Afterwards, 7.43 μL of mix B was added (table 3C) and the reverse transcription step was initiated (table 3D) to generate cDNA.
Finally, a RT-qPCR mix was prepared, mix C (table 4A), dispensed in 96-well LightCycler qPCR plates to which 3 μL of cDNA was added and the qPCR was performed according to the conditions in table 4B on a LightCycler 480. Using the LightCycler software and an in-house LIMS system, dose response curves for each compound were calculated and the half maximal effective concentration (EC50) and the half maximal cytotoxic concentration (CO50) were determined (Tables 6-9).

DENV-2 16681 strain = experiment: DENV-2 antiviral assay (eGFP-labelled virus in Vero cells); format: cell-based, Dengue virus; conditions: DENV-2 16681 eGFP, MOI 0.5, 3 days
Experimental: The antiviral activity of all the compounds of the invention was tested against DENV-2 16681 strain which was labeled with enhanced green fluorescent protein (eGPF). The culture medium consists of minimal essential medium supplemented with 2% of heat-inactivated fetal calf serum, 0.04% gentamycin (50 mg/mL) and 2 mM of L-glutamine. Vero cells, obtained from ECACC, were suspended in culture medium and 25 μL was added to 384-well plates (2500 cells/well), which already contain the antiviral compounds. Typically, these plates contain a 4-fold serial dilution of 9 dilution steps of the test compound at 200 times the final concentration in 100% DMSO (200 nL). In addition, each compound concentration is tested in quadruplicate (final concentration range: 25 μM-0.00038 μM). Finally, each plate contains wells which are assigned as virus controls (containing cells and virus in the absence of compound), cell controls (containing cells in the absence of virus and compound) and medium controls (containing medium in the absence of cells, virus and compounds). To the wells assigned as medium control, 25 μL of culture medium was added instead of Vero cells. Once the cells were added to the plates, the plates were incubated for 30 minutes at room temperature to allow the cells to distribute evenly within the wells. Next, the plates were incubated in a fully humidified incubator (37° C., 5% CO2) until the next day. Then, DENV-2 strain 16681, labeled with eGFP, was added at a multiplicity of infection (MOI) of 0.5. Therefore, 15 μL of virus suspension was added to all the wells containing test compound and to the wells assigned as virus control. In parallel, 15 μL of culture medium was added to the medium and cell controls. Next, the plates were incubated for 3 days in a fully humidified incubator (37° C., 5% CO2). At the day of the read out, the eGFP fluorescence was measured using an automated fluorescence microscope at 488 nm (blue laser). Using an in-house LIMS system, inhibition dose response curves for each compound were calculated and the half maximal effective concentration (EC50) was determined. Therefore, the percent inhibition (I) for every test concentration is calculated using the following formula: I=100*(ST−SCC)/(SVC−SCC); ST, SCC and SVC are the amount of eGFP signal in the test compound, cell control and virus control wells, respectively. The EC50 represents the concentration of a compound at which the virus replication is inhibited with 50%, as measured by a 50% reduction of the eGFP fluorescent intensity compared to the virus control. The EC50 is calculated using linear interpolation (Table 1).

SMILES	EC50 (DENV-1 strain TC974#666) [nM]	EC50 (DENV-2 16681 strain) [nM]
COc1cc(NC(C(=O)c2c[nH]c3cc(Cl)ccc23)c2ccc(F)cc2OC)cc(OCCO)c1 (single isomer, unassigned) [Compound 4A, 1-(6-chloro-1H-indol-3-yl)-2-(4-fluoro-2-methoxyphenyl)-2-((3-(2-hydroxyethoxy)-5-methoxyphenyl)amino)ethanone]	20	1.6
COc1cc(NC(C(=O)c2c[nH]c3c(F)cc(C)cc23)c2ccc(F)cc2OC)cc(OCCO)c1 (single isomer, unassigned) [Compound 12B, 2-(4-fluoro-2-methoxyphenyl)-1-(7-fluoro-5-methyl-1H-indol-3-yl)-2-((3-(2-hydroxyethoxy)-5-methoxyphenyl)amino)ethanone]	20	5.1
COc1cc(NC(C(=O)c2c[nH]c3cc(OC)c(F)cc23)c2ccc(F)cc2OC)cc(OCCO)c1 (single isomer, unassigned) [Compound 7A, 2-(4-fluoro-2-methoxyphenyl)-1-(5-fluoro-6-methoxy-1H-indol-3-yl)-2-((3-(2-hydroxyethoxy)-5-methoxyphenyl)amino)ethanone]	29	4.6
COc1cc(NC(C(=O)c2c[nH]c3c(Cl)c(OC)ccc23)c2ccc(F)cc2OC)cc(OCCO)c1 (single isomer, unassigned) [Compound 8A, 1-(7-chloro-6-methoxy-1H-indol-3-yl)-2-(4-fluoro-2-methoxyphenyl)-2-((3-(2-hydroxyethoxy)-5-methoxyphenyl)amino)ethanone]	32	1
COc1cc(NC(C(=O)c2c[nH]c3c(C)c(F)ccc23)c2ccc(F)cc2OC)cc(OCCO)c1 (single isomer, unassigned) [Compound 2B, 2-(4-fluoro-2-methoxyphenyl)-1-(6-fluoro-7-methyl-1H-indol-3-yl)-2-((3-(2-hydroxyethoxy)-5-methoxyphenyl)amino)ethanone]	13	2.2
COc1cc(NC(C(=O)c2c[nH]c3c(F)c(F)ccc23)c2ccc(F)cc2OC)cc(OCCO)c1 (single isomer, unassigned) [Compound 5B, 1-(6,7-difluoro-1H-indol-3-yl)-2-(4-fluoro-2-methoxyphenyl)-2-((3-(2-hydroxyethoxy)-5-methoxyphenyl)amino)ethanone]	27	2.5
COc1cc(NC(C(=O)c2c[nH]c3c(C)c(OC)ccc23)c2ccc(F)cc2OC)cc(OCCO)c1 (single isomer, unassigned) [Compound 11A, 2-(4-fluoro-2-methoxyphenyl)-2-((3-(2-hydroxyethoxy)-5-methoxyphenyl)amino)-1-(6-methoxy-7-methyl-1H-indol-3-yl)ethanone]	20	0.81
COc1cc(NC(C(=O)c2c[nH]c3cc(OC)c(C)cc23)c2ccc(F)cc2OC)cc(OCCO)c1 (single isomer, unassigned) [Compound 6A, 2-(4-fluoro-2-methoxyphenyl)-2-((3-(2-hydroxyethoxy)-5-methoxyphenyl)amino)-1-(6-methoxy-5-methyl-1H-indol-3-yl)ethanone]	16	2.7
COc1cc(NC(C(=O)c2c[nH]c3c(C)c(Cl)ccc23)c2ccc(F)cc2OC)cc(OCCO)c1 (single isomer, unassigned) [Compound 3A, 1-(6-chloro-7-methyl-1H-indol-3-yl)-2-(4-fluoro-2-methoxyphenyl)-2-((3-(2-hydroxyethoxy)-5-methoxyphenyl)amino)ethanone]	16	0.77
COc1cc(NC(C(=O)c2c[nH]c3cc(F)ccc23)c2ccc(F)cc2OC)cc(OCCO)c1 (single isomer, unassigned) [Compound 1A, 1-(6-fluoro-1H-indol-3-yl)-2-(4-fluoro-2-methoxyphenyl)-2-((3-(2-hydroxyethoxy)-5-methoxyphenyl)amino)ethanone]	18	3.8
COc1cc(NC(C(=O)c2c[nH]c3cc(F)c(F)cc23)c2ccc(F)cc2OC)cc(OCCO)c1 (single isomer, unassigned) [Compound 10B, 1-(5,6-difluoro-1H-indol-3-yl)-2-(4-fluoro-2-methoxy-phenyl)-2-((3-(2-hydroxyethoxy)-5-methoxyphenyl)amino)ethanone]	16	2.7
COc1cc(NC(C(=O)c2c[nH]c3c(C)cc(F)cc23)c2ccc(F)cc2OC)cc(OCCO)c1 (single isomer, unassigned) [Compound 9B, 2-(4-fluoro-2-methoxyphenyl)-1-(5-fluoro-7-methyl-1H-indol-3-yl)-2-((3-(2-hydroxyethoxy)-5-methoxyphenyl)amino)ethanone]	19	3.4
